Results as given in PubChem BioAssay (NCI).
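1) Cells in 96-well plates. 2) Compound, 48 h, 5 concentrations. 3) Linear interpolation between surrounding doses. 4) Unreached endpoint = highest concentration. GI50: concentration for 50% inhibition of growth. TGI is the concentration that stops growth completely.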

Assays:
Assay in all cases: growth of human tumour cells (NCI), 48 h
HL-60(TB) leukemia = test system: HL-60(TB) leukemia
HCC-2998 colon = test system: HCC-2998 colon
NCI-H23 lung = test system: NCI-H23 lung
UACC-62 melanoma = test system: UACC-62 melanoma
SF-295 CNS = test system: SF-295 CNS
TK-10 renal = test system: TK-10 renal
HCT-15 colon = test system: HCT-15 colon
NCI-H460 lung = test system: NCI-H460 lung
OVCAR-4 ovarian = test system: OVCAR-4 ovarian
PC-3 prostate = test system: PC-3 prostate

## CC(C)(CO)N=Cc1ccccc1[O-].CC(C)(CO)N=Cc1ccccc1[O-].[Co+2]
HL-60(TB) leukemia
  GI50: 11.8 µM
  TGI: 79.4 µM
HCC-2998 colon
  GI50: 75.4 µM
  TGI: > 100 µM
NCI-H23 lung
  GI50: 72.7 µM
  TGI: > 100 µM
UACC-62 melanoma
  GI50: 24.9 µM
  TGI: > 85.3 µM
SF-295 CNS
  GI50: > 100 µM
  TGI: > 100 µM
TK-10 renal
  GI50: 81.3 µM
  TGI: > 100 µM
HCT-15 colon
  GI50: 69.7 µM
  TGI: > 100 µM
NCI-H460 lung
  GI50: > 100 µM
  TGI: > 100 µM
OVCAR-4 ovarian
  GI50: 71.9 µM
  TGI: > 100 µM
PC-3 prostate
  GI50: 49.3 µM
  TGI: > 100 µM
